Experimental data taken from US8765982B2, “Synergistic anticoagulant composition” (priority 2009, dated 2014).
Values joined by “and” are separate entries in the source; they are usually repeats but may differ in a detail not shown here. Identical values can stand only once.

Tests used:
blood clotting [1] = assay: Rat feeding study: prothrombin time; assay type: in vivo, Sprague-Dawley rats; design: Pro Time: unit not given beside the values; conditions: rats; for Pro Time: in feed
Description: (§1) Male, albino, Sprague-Dawley rats (n=100) weighing 150-175 g were placed in quarantine for 1 week and then housed in individual cages. To determine food consumption, rat chow in containers was weighed at the beginning and end of the day to determine the weight of the food consumed by each animal. The containers were modified to prevent spillage. Rats were provided with water ad libitum. The chow was composed of rolled oats, sugar and peanut oil (92:4:4) (w:w:w) plus a standard vitamin/mineral mix.
(§2) Administration of anticoagulant was accomplished by uniformly dispersing the compound in the peanut oil used in the chow. […] […] Actual concentration of the drug to be applied will be based on the average food consumption determined for the rats.
(§3) Groups of rats were established as follows for each UWEC-K compound:
(§4) • A. Diet (Negative) controls: no anticoagulant additive to food • B. Positive controls: food treated with warfarin at LD50 concentration for a rat weighing 180 g • C. Control to evaluate potentiation or diminution of warfarin effect. […] The groups will be repeated for each of the two compounds. Four animals in each group were anaesthetized at 96 hours, and exsanguinated by cardiac puncture. Prior to exsanguination each animal was anesthetized by the intraperitoneal injection of 50 mg/kg of sodium pentothal. Blood was collected in 3.2% citrate in pediatric tubes and tested for prothrombin time and active coagulation factors VII and X. Factor V will also be tested as a marker of potential hepatic toxicity. […] Animals were monitored twice daily and any animals found in apparent distress with be immediately sacrificed as above.

clotting factor VII = assay: Rat feeding study: level of active coagulation factor VII; assay type: in vivo, Sprague-Dawley rats; conditions: rats; for VII %: in feed
Description: as §1, §2, §3, §4

clotting factor X = assay: Rat feeding study: level of active coagulation factor X; assay type: in vivo, Sprague-Dawley rats; conditions: rats; for X %: in feed
Description: as §1, §2, §3, §4

[2] = Rat feeding study: toxicity control (LDH, AST, ALT, Alkaline Phosphatase, creatinine in plasma and serum); conditions: rats, in feed
Description: as §1, §2, §3, §4

blood clotting [3] = assay: Rat feeding study: overall effect on blood clotting and on the anticoagulant activity of warfarin; assay type: in vivo, Sprague-Dawley rats; conditions: rats; for effect on blood clotting time and levels of clotting factors, compound alone (in words): without warfarin, all three doses; for effect on the activity of warfarin (in words): 10 days of co-administration with warfarin
Description: The containers were modified to prevent spillage. Rats were provided with water ad libitum.
Thus diets were constructed at 0.1 mpk/d. 1 mpk/d and 10 mpk/d.
Control to evaluate potentiation or diminution of warfarin effect.

rat = conditions: for 5 days; cited from earlier work
blood clotting [4] = conditions: 0.25 mg/kg, rats of approximately 200 gm BW; cited from earlier work
[5] = 10 days, co-administered with warfarin

In the case of `CC(=O)Oc1c2c(c(OC(C)=O)c3ccccc13)[C@H]1C=C[C@@H]2C1` [UWEC-K1], the “Pro Time” value (blood clotting [1]; 4 days, 0.025 mpk) is reported as 11.18, the “Pro Time” value (blood clotting [1]; 4 days, 0.25 mpk) is reported as 11.60 and the “Pro Time” value (blood clotting [1]; 4 days, 2.5 mpk) is reported as 11.78. The “Pro Time” value (blood clotting [1]; 10 days, 0.025 mpk) was 11.37, the “Pro Time” value (blood clotting [1]; 10 days, 0.25 mpk) was 11.72 and the “Pro Time” value (blood clotting [1]; 10 days, 2.5 mpk) was 11.63. The VII % (clotting factor VII; 4 days, 0.025 mpk) was 346.75%, the VII % (clotting factor VII; 4 days, 0.25 mpk) was 351.33% and the VII % (clotting factor VII; 4 days, 2.5 mpk) was 370.75%. The VII % (clotting factor VII; 10 days, 0.025 mpk) was 364.00%, the VII % (clotting factor VII; 10 days, 0.25 mpk) was 304.67% and the VII % (clotting factor VII; 10 days, 2.5 mpk) was 286.83%. For the same compound, the X % (clotting factor X; 4 days, 0.025 mpk) was 74.50%, the X % (clotting factor X; 4 days, 0.25 mpk) was 65.33% and the X % (clotting factor X; 4 days, 2.5 mpk) was 64.25%. For the same compound, the X % (clotting factor X; 10 days, 0.025 mpk) was 68.00%, the X % (clotting factor X; 10 days, 0.25 mpk) was 61.17% and the X % (clotting factor X; 10 days, 2.5 mpk) was 61.00%. The ALT ([2]; 4 days, 0.025 mpk) was 37.67, the AST ([2]; 4 days, 0.025 mpk) was 121.00 and the “Alk Phos” value ([2]; 4 days, 0.025 mpk) was 170.67. The Creat. ([2]; 4 days, 0.025 mpk) was 0.15, the LDH ([2]; 4 days, 0.025 mpk) was 1075.33 and the ALT ([2]; 4 days, 0.25 mpk) was 41.75. The AST ([2]; 4 days, 0.25 mpk) was 152.75, the “Alk Phos” value ([2]; 4 days, 0.25 mpk) was 245.75 and the Creat. ([2]; 4 days, 0.25 mpk) was 0.10. For the same compound, the LDH ([2]; 4 days, 0.25 mpk) was 1168.00, the ALT ([2]; 4 days, 2.5 mpk) was 39.00 and the AST ([2]; 4 days, 2.5 mpk) was 125.67. For the same compound, the “Alk Phos” value ([2]; 4 days, 2.5 mpk) was 230.67, the Creat. ([2]; 4 days, 2.5 mpk) was 0.10 and the LDH ([2]; 4 days, 2.5 mpk) was 1304.67. For the same compound, the ALT ([2]; 10 days, 0.025 mpk) was 49.33, the AST ([2]; 10 days, 0.025 mpk) was 134.67 and the “Alk Phos” value ([2]; 10 days, 0.025 mpk) was 252.17. The Creat. ([2]; 10 days, 0.025 mpk) was 0.13, the LDH ([2]; 10 days, 0.025 mpk) was 1697.17 and the ALT ([2]; 10 days, 0.25 mpk) was 48.33. The AST ([2]; 10 days, 0.25 mpk) was 121.33, the “Alk Phos” value ([2]; 10 days, 0.25 mpk) was 283.50 and the Creat. ([2]; 10 days, 0.25 mpk) was 0.15. For the same compound, the LDH ([2]; 10 days, 0.25 mpk) was 1330.33, the ALT ([2]; 10 days, 2.5 mpk) was 49.33 and the AST ([2]; 10 days, 2.5 mpk) was 124.67. The “Alk Phos” value ([2]; 10 days, 2.5 mpk) was 264.00, the Creat. ([2]; 10 days, 2.5 mpk) was 0.15 and the LDH ([2]; 10 days, 2.5 mpk) was 1663.83. For the same compound, the “effect on blood clotting time and levels of clotting factors, compound alone (in words)” value (“effect on blood clotting time and levels” below) (blood clotting [3]; 4 days) was “do not differ significantly from control”, the “effect on the activity of warfarin (in words)” value (blood clotting [3]) was “significantly enhance the effect of warfarin” and the “effect on blood clotting time and levels” value (blood clotting [3]; 10 days) was “do not differ significantly from control”.

With `CC(=O)Oc1c2c(c(OC(C)=O)c3ccccc13)[C@@H]1C[C@H]2C2OC21` (stereo partly drawn) [UWEC-K2] the “prothrombin clotting time increase compared to control” value (blood clotting [1]; [5]) was “almost an order of magnitude”, the “prothrombin clotting time increased by a factor relative to warfarin alone” value (blood clotting [1]; [5]) was “over 4” and the “Pro Time” value (blood clotting [1]; 4 days, 0.025 mpk) was 11.38. For the same compound, the “Pro Time” value (blood clotting [1]; 4 days, 0.25 mpk) was 11.63, the “Pro Time” value (blood clotting [1]; 4 days, 2.5 mpk) was 12.73 and the “Pro Time” value (blood clotting [1]; 10 days, 0.025 mpk) was 11.58. The “Pro Time” value (blood clotting [1]; 10 days, 0.25 mpk) was 11.55, the “Pro Time” value (blood clotting [1]; 10 days, 2.5 mpk, 2.5 mg/kg) was 11.57 and 11.63 and the “levels of Factor VII reduced by a factor compared to control” value (clotting factor VII; [5]) was about 20. The “levels of Factor VII reduced by a factor relative to warfarin alone” value (clotting factor VII; [5]) was 3, the VII % (clotting factor VII; 4 days, 0.025 mpk) was 366.25% and the VII % (clotting factor VII; 4 days, 0.25 mpk) was 334.33%. It also gave a VII % (clotting factor VII; 4 days, 2.5 mpk) of 395.50%, a VII % (clotting factor VII; 10 days, 0.025 mpk) of 350.17% and a VII % (clotting factor VII; 10 days, 0.25 mpk) of 295.17%. The VII % (clotting factor VII; 10 days, 2.5 mpk, 2.5 mg/kg) was 325.33% and 286.83%, the “levels of Factor X reduced by a factor compared to control” value (clotting factor X; [5]) was about 20 and the “levels of Factor X reduced by a factor relative to warfarin alone” value (clotting factor X; [5]) was 4. The X % (clotting factor X; 4 days, 0.025 mpk) was 73.25%, the X % (clotting factor X; 4 days, 0.25 mpk) was 61.00% and the X % (clotting factor X; 4 days, 2.5 mpk) was 61.00%. For the same compound, the X % (clotting factor X; 10 days, 0.025 mpk) was 64.17%, the X % (clotting factor X; 10 days, 0.25 mpk) was 59.83% and the X % (clotting factor X; 10 days, 2.5 mpk, 2.5 mg/kg) was 63.33% and 61.00%. The ALT ([2]; 4 days, 0.025 mpk) was 40.25, the AST ([2]; 4 days, 0.025 mpk) was 104.75 and the “Alk Phos” value ([2]; 4 days, 0.025 mpk) was 213.50. For the same compound, the Creat. ([2]; 4 days, 0.025 mpk) was 0.10, the LDH ([2]; 4 days, 0.025 mpk) was 758.75 and the ALT ([2]; 4 days, 0.25 mpk) was 45.00. The AST ([2]; 4 days, 0.25 mpk) was 135.33, the “Alk Phos” value ([2]; 4 days, 0.25 mpk) was 240.33 and the Creat. ([2]; 4 days, 0.25 mpk) was 0.10. The LDH ([2]; 4 days, 0.25 mpk) was 1496.33, the ALT ([2]; 4 days, 2.5 mpk) was 35.50 and the AST ([2]; 4 days, 2.5 mpk) was 114.75. The “Alk Phos” value ([2]; 4 days, 2.5 mpk) was 217.25, the Creat. ([2]; 4 days, 2.5 mpk) was 0.10 and the LDH ([2]; 4 days, 2.5 mpk) was 1026.50. The ALT ([2]; 10 days, 0.025 mpk) was 48.17, the AST ([2]; 10 days, 0.025 mpk) was 132.33 and the “Alk Phos” value ([2]; 10 days, 0.025 mpk) was 241.67. The Creat. ([2]; 10 days, 0.025 mpk) was 0.10, the LDH ([2]; 10 days, 0.025 mpk) was 1552.33 and the ALT ([2]; 10 days, 0.25 mpk) was 47.50. For the same compound, the AST ([2]; 10 days, 0.25 mpk) was 118.67, the “Alk Phos” value ([2]; 10 days, 0.25 mpk) was 274.17 and the Creat. ([2]; 10 days, 0.25 mpk) was 0.12. For the same compound, the LDH ([2]; 10 days, 0.25 mpk) was 1445.50, the ALT ([2]; 10 days, 2.5 mpk) was 48.50 and the AST ([2]; 10 days, 2.5 mpk) was 110.67. The “Alk Phos” value ([2]; 10 days, 2.5 mpk) was 264.17, the Creat. ([2]; 10 days, 2.5 mpk) was 0.15 and the LDH ([2]; 10 days, 2.5 mpk) was 1234.50. For the same compound, the “effect on blood clotting time and levels” value (blood clotting [3]; 4 days) was “do not differ significantly from control”, the “effect on the activity of warfarin (in words)” value (blood clotting [3]) was “significantly enhance the effect of warfarin” and the “effect on blood clotting time and levels” value (blood clotting [3]; 10 days) was “do not differ significantly from control”.

In the case of `CC(=O)CC(c1ccccc1)c1c(O)c2ccccc2oc1=O` (stereo not drawn) [Warfarin, warfarin, reference compound], the “Pro Time” value (blood clotting [1]; 4 days, 0.25 mpk) is reported as 36.98, the “Pro Time” value (blood clotting [1]; 10 days, 0.25 mpk) is reported as 24.38 and the VII % (clotting factor VII; 4 days, 0.25 mpk) is reported as 29.54%. For the same compound, the VII % (clotting factor VII; 10 days, 0.25 mpk) was 56.18%, the X % (clotting factor X; 4 days, 0.25 mpk) was 10.00% and the X % (clotting factor X; 10 days, 0.25 mpk) was 14.85%. The ALT ([2]; 4 days, 0.25 mpk) was 46.00, the AST ([2]; 4 days, 0.25 mpk) was 123.25 and the “Alk Phos” value ([2]; 4 days, 0.25 mpk) was 242.30. It also gave a Creat. ([2]; 4 days, 0.25 mpk) of 0.11, an LDH ([2]; 4 days, 0.25 mpk) of 1168.88 and an ALT ([2]; 10 days, 0.25 mpk) of 48.09. The AST ([2]; 10 days, 0.25 mpk) was 91.82, the “Alk Phos” value ([2]; 10 days, 0.25 mpk) was 249.73 and the Creat. ([2]; 10 days, 0.25 mpk) was 0.15. The LDH ([2]; 10 days, 0.25 mpk) was 626.18, the LD50 (rat) was 1 mg/kg/day and the INR maintained (blood clotting [4]) was 2.6.
